Results taken from ChEMBL document CHEMBL3826958, “Zinc-mediated binding of a low-molecular-weight stabilizer of the host anti-viral factor apolipoprotein B mRNA-editing enzyme, catalytic polypeptide-like 3G” (Bioorg Med Chem, 2016).
Activity calls are given as the source filed them. The calls are words filed in the database; no cut-off is given here.

What was measured:
[1] = molecular target: DNA dC->dU-editing enzyme APOBEC-3G (Homo sapiens) (UniProt Q9HC16); experiment: Binding affinity to FLAG-tagged human A3G expressed in human 293T cells at 13 uM incubated for 16 hrs by streptavidin agarose based immunoblot analysis; type: cell-based
[2] = molecular target: DNA dC->dU-editing enzyme APOBEC-3G (Homo sapiens) (UniProt Q9HC16); experiment: Binding affinity to FLAG-tagged human A3G expressed in human 293T cells at 13 uM incubated for 16 hrs in presence of EDTA by streptavidin agarose based immunoblot analysis; type: cell-based

Chain of DNA dC->dU-editing enzyme APOBEC-3G (Homo sapiens) (Q9HC16 whole entry): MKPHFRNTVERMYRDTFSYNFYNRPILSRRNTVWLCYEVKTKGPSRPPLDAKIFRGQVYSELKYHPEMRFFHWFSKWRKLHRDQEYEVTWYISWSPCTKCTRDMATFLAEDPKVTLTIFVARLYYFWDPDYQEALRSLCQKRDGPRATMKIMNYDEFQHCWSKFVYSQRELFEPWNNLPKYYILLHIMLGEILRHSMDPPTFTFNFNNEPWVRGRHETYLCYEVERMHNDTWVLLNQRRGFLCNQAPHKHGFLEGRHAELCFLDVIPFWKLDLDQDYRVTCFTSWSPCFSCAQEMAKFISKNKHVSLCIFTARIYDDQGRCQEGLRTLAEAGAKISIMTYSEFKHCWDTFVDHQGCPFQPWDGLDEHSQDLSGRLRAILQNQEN

COC(=O)CCCC[C@@H]1SC[C@@H]2NC(=O)N[C@@H]21
Activity [1]: inactive

O=C(CCCC[C@@H]1SC[C@@H]2NC(=O)N[C@@H]21)NCCCCCCOC(=O)Nc1cc(CNCCS)nc(CNCCS)c1
Activity [2]: inactive
Activity [1]: Active
